According to BigSolDB 2.1:

CN(C)/C=C/C(=O)c1cccnc1
solubility (mole fraction)
Conditions | in 1,4-dioxane | in DMF | in THF | in acetone | in cyclohexane | in ethyl acetate | in methanol | in n-propanol
278.15 K | – | 0.0897 | 0.021 | 0.00872 | – | 0.0131 | 0.0255 | 0.0185
283.15 K | – | 0.112 | 0.0216 | 0.00917 | 0.00098 | 0.014 | 0.0278 | 0.0207
288.15 K | 0.0331 | 0.142 | 0.0225 | 0.00987 | 0.00114 | 0.0152 | 0.0304 | 0.0233
293.15 K | 0.0357 | 0.175 | 0.0239 | 0.0108 | 0.00147 | 0.0163 | 0.034 | 0.0261
298.15 K | 0.0388 | 0.209 | 0.0257 | 0.0117 | 0.00183 | 0.018 | 0.0379 | 0.0298
303.15 K | 0.0427 | 0.249 | 0.0279 | 0.0127 | 0.00228 | 0.02 | 0.0427 | 0.0331
308.15 K | 0.048 | 0.293 | 0.0304 | 0.0138 | 0.00284 | 0.0228 | 0.0476 | 0.0371
313.15 K | 0.054 | 0.348 | 0.033 | 0.0149 | 0.0034 | 0.0259 | 0.0533 | 0.0408
318.15 K | 0.061 | 0.408 | 0.0358 | 0.0164 | 0.00408 | 0.0295 | 0.0588 | 0.0465
323.15 K | 0.0692 | 0.482 | 0.0391 | 0.0178 | 0.00493 | 0.0338 | 0.0648 | 0.0529
328.15 K | 0.0779 | 0.588 | 0.0428 | 0.0197 | 0.0061 | 0.0382 | 0.0715 | 0.0604
